Experimental data published in US8637556B2, “Linked Myc-max small molecule inhibitors” (University of Pittsburgh—Of the Commonwealth System of …, priority 2009, dated 2014).
Like-named read-outs stand apart in the source and are kept apart here.

Legend:
[1] = system: Daudi Burkitt lymphoma cells; experiment: Burkitt's lymphoma cell growth inhibition (MTT assay); assay type: cell-based; settings: Homo sapiens
Procedure: (§1) These assays were performed as previously described using HL60 promyelocytic leukemia cells and Daudi Burkitt lymphoma cells, each of which expresses high levels of endogenous c-Myc (Wang, H. et al. Mol. Cancer Ther. 6, 2399-408 (2007)). As controls for non-specific effects of bivalent compounds, we utilized a c-Myc nulllizygous strain of rat fibroblasts (Mateyak, M. K., et al. Cell Growth & Differentiation 8, 1039-48 (1997)) expressing the c-Myc target genes MT-MC1 and HMGAIb, each of which restores a normal growth rate as well as the TGR1 fibroblast line from which the nullizygous line was derived (Wang, H. et al. Mol. Cancer Ther. 6, 2399-408 (2007); Mateyak, M. K., et al. Cell Growth & Differentiation 8, 1039-48 (1997); and Rothermund, K. et al. Cancer Research 65, 2097-107 (2005)). […] Cell quantification was performed on triplicate wells over the ensuing 4-5 days without changing the medium by measuring the absorbance at 490 nm using the MTT assay (Mosmann, T. Journal of Immunological Methods 65, 55-63 (1983)). IC50 values were estimated from linear regression of the inhibition data at the third day of each experiment.
(§2) We evaluated the efficacy of the linked compounds 11, 12, 13, 16, 17, 18 in inhibiting the c-Myc-Max interaction by measuring the binding of a target DNA sequence (E-Box) by the protein heterodimers in an electrophoretic mobility shift assay (EMSA). […] A fluorinated substitute of 14, 24, the choice of which was based upon the results of structure activity relationship studies described in Wang, H. et al. (Mol. Cancer Ther. 6, 2399-408 (2007)), was employed at this purpose (Muller, K., et al. Science 317, 1881-6 (2007) and Kirk, K. L. Current Topics in Medicinal Chemistry 6, 1447-56 (2006)).

[2] = system: HL60 promyelocytic leukemia cells; experiment: HL60 cell growth inhibition (MTT assay); assay type: cell-based; settings: Homo sapiens, HL-60
Procedure: as §1, §2

[3] = molecular target: T1, c-Myc-Max heterodimer binding to E-Box DNA (Homo sapiens, UniProt P01106); experiment: Electrophoretic mobility shift assay (EMSA) of c-Myc-Max DNA binding; assay type: biochemical; settings: c-Myc-Max dimer 1 μM, 10 nM E-Box DNA
T1 construct: 6xHis with TEV site (N, cleaved yes); made in house; host or cells: c-Myc: E. coli BL21DE3(pLysS); Max: E. coli M15(pRep4)
Procedure: FIG. 17. Inhibition of c-Myc-Max DNA binding measured by electrophoretic mobility shift assay (EMSA). a. Inhibition by bivalent compounds 11, 12, 13. b. Inhibition by bivalent compounds 16, 17, 18. c. Inhibition by monovalent compounds 10074-G5 (1) and 10058-F4 (2). Inhibitor concentrations are micromolar. The c-Myc-Max dimer concentration was 1 μM in a and b, 50 nM in c.
Reactions containing c-Myc353-437 and varying concentrations of each tested inhibitor in a buffer containing 1×PBS, 1 mM EDTA; 0.1% NP40; 5% Glycerol; 1 mM DTT; 0.4 mg/mL BSA were incubated for 30 minutes, followed by addition of pre-mixed p21 Max and a synthetic double-stranded oligonucleotide containing a consensus c-Myc-binding “E-Box” element (CACGTG). The final protein concentration was 1 μM for both c-Myc353-437 and p21 Max, 10 nM E-Box DNA. The binding reaction was then allowed to proceed for an additional 15 minutes before loading on an 8% running gel (80:1 poly acrylamide:bis-acrylamide). Control experiments with the monovalent parent inhibitors 1 and 2 were similarly performed using a lower (50 nM) concentration of each protein component. Gels were run at 20° C. in 0.5×TBE and scanned on a BioRad FX molecular imager. Data were analyzed with BioRad Quantity One software.
We evaluated the efficacy of the linked compounds 11, 12, 13, 16, 17, 18 in inhibiting the c-Myc-Max interaction by measuring the binding of a target DNA sequence (E-Box) by the protein heterodimers in an electrophoretic mobility shift assay (EMSA). […] Of these, the best was compound 16 (LINK N1), with an IC50 in the 0.5-1.0 μM in both of the above cell lines. In contrast, higher concentrations of the compounds were required to inhibit the growth of the non-transformed rat fibroblast line TGR1 or of TGR1-derived c-Myc null rat fibroblasts reconstituted with either of the c-Myc target genes HMGA1b or MT-MC1, which restore a normal growth rate. […] The lower, albeit promising, potency of the bivalent inhibitors in cell based assays compared to ones involving purified components, and the partial lack of correlation between the first and the latter, may reflect a generally poor cell permeability of these compounds, which are relatively bulky and display higher than optimal polar surface areas. The effects of the linker chain connectivity on the compounds conformation and shape may also affect their cell permeability in a different manner from what observed for their c-Myc binding affinity, resulting in the aforementioned incomplete correlation between their performance in cell based and purified components assays (FIG. 19). […]

[4] = Table 3, MTT, third day, read-out: Growth inhibition BL
[5] = Table 3, MTT, third day, read-out: Growth inhibition HL60

T1 sequence (P01106 368-452, one chain of several): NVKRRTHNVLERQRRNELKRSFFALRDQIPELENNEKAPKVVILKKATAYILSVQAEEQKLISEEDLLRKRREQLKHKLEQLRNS

Structure (SMILES): O=C1NC(=S)S/C1=C\c1ccc(C(=O)NCCCCCNC(=O)c2cccc(Nc3ccc([N+](=O)[O-])c4nonc34)c2)cc1 [compound 12, N-[5-({3-[(7-nitro-2,1,3-benzoxadiazol-4-yl)amino]phenyl}formamido)pentyl]-4-{[(5Z)-4-oxo-2-sulfanylidene-1,3-thiazolidin-5-ylidene]methyl}benzamide]
- IC50 [1, 4]: 20 to 35 µM
- IC50 [2, 5]: > 30 µM
- Disruption of c-Myc-Max DNA (E-Box) binding [3]: Strong disruption of DNA binding

Structure (SMILES): O=C1NC(=S)SC1=Cc1ccc(C(=O)NCCCCCNC(=O)c2ccc(Nc3ccc([N+](=O)[O-])c4nonc34)cc2)cc1 [compound 13]
- IC50 [1, 4]: 5 to 10 µM
- IC50 [2, 5]: 6 µM
- Disruption of c-Myc-Max DNA (E-Box) binding [3]: Strong disruption of DNA binding

Structure (SMILES): CCc1ccc(/C=C2\SC(=O)N(CCCCCCNC(=O)c3ccccc3Nc3ccc([N+](=O)[O-])c4nonc34)C2=O)cc1 [compound 16, N-{6-[(5Z)-5-[(4-ethylphenyl)methylidene]-2,4-dioxo-1,3-thiazolidin-3-yl]hexyl}-2-[(7-nitro-2,1,3-benzoxadiazol-4-yl)amino]benzamide amine]
- IC50 ([1]; BL cells, read-out: IC50): 0.5 to 1 µM
- IC50 [1, 4]: 0.7 to 0.9 µM
- IC50 ([2]; HL60 cells, read-out: IC50): 0.5 to 1 µM
- IC50 [2, 5]: 0.5 to 0.7 µM
- Disruption of c-Myc-Max DNA (E-Box) binding [3]: Strong disruption of DNA binding

Structure (SMILES): CCc1ccc(C=C2SC(=O)N(CCCCCCNC(=O)c3cccc(Nc4ccc([N+](=O)[O-])c5nonc45)c3)C2=O)cc1 [compound 17]
- IC50 [1, 4]: > 10 µM
- IC50 [2, 5]: > 30 µM
- Disruption of c-Myc-Max DNA (E-Box) binding [3]: Strong disruption of DNA binding
